The values that follow are results of earlier work, collected in patent publication US20090155388A1, “WEIGHT PHYTO-NUTRACEUTICAL SYNERGISTIC COMPOSITION” (priority 2006, published 2009).

For data set [1] the following is noted: in vivo.
The conditions of data set [2]: 89 mildly overweight women.
The conditions of data set [3]: female mice.
The subject of a further data set is lipoprotein lipase (LPL). The settings on record: vanadate-stimulated.
The conditions of data set [4]: third ventricle (i.c.v.) administration.
For data set [5], the system named is FAS (fatty acid synthase).
The test system of data set [6] is bacterial resistance mechanism (multidrug pump). The settings on record: in vitro.
For data set [7] the following is noted: 10 studies.
The conditions of data set [8]: 36 obese patients, maintenance period.

Turning to `O=C(O)CC(O)(C(=O)O)C(O)C(=O)O` (single isomer, unassigned; (-)) [(−)-Hydroxycitric acid (HCA), (−)-Hydroxycitric acid], the “body weight, feed consumption, adverse effects” value in data set [1] is “significant decrease in body weight and reduction in feed consumption without any adverse effects”. In addition, the “reduction of body weight” value in data set [2] was “significantly greater reduction of body weight”. Regarding `CNCCC(Oc1ccc(C(F)(F)F)cc1)c1ccccc1` (stereo not drawn) [fluoxetine], the “hyperphagic effect of 5-HT depletor, 5-HT1A agonist, 5-HT antagonist and glucose antimetabolite” value in data set [3] was “significantly antagonized”.

With `C[C@@H]1O[C@@H](O[C@H]2C(=O)c3c(O)cc(O)cc3O[C@@H]2c2ccc(O)c(O)c2)[C@H](O)[C@H](O)[C@H]1O` [Astilbin, astilbin], in the data set with lipoprotein lipase (LPL), the “release of LPL activity” value was “enhanced the release of lipoprotein lipase (LPL) activity”. For `C/C=C(\C)C(=O)O[C@@H]1C[C@H]2[C@@H](CC=C3C[C@@H](O[C@H]4C[C@H](OC)[C@H](O[C@H]5C[C@H](OC)[C@H](O[C@@H]6O[C@H](C)[C@@H](O)[C@H](OC)[C@H]6O)[C@@H](C)O5)[C@@H](C)O4)CC[C@@]32C)[C@@]2(O)CC[C@H](C(C)=O)[C@@]12C` [P57AS3], the “reduction of subsequent 24-h food intake” value in [4] is 40-60%. For the same molecule, the “increase of ATP content” value with hypothalamic neurons is reported as 50-150%. For the molecule catechin gallate [(−)-CG], the “inhibition of FAS” value in [5] is on record as “very potent inhibitor of FAS”.

Regarding `COc1cc([C@H]2Oc3cc(-c4cc(=O)c5c(O)cc(O)cc5o4)cc(OC)c3O[C@@H]2CO)ccc1O` (racemic) [5′-methoxyhydnocarpin (5′-MHC), 5′-methoxyhydnocarpin], in data set [6], the “potentiation of activity of berberine alkaloids” value was “strongly potentiated”. As for Chromium picolinate, in [7], the “effect on reducing body weight compared with placebo” value is given as “relatively small effect”. Besides, the insulin sensitivity entry (37 patients, with sulfonylurea agents) was “significantly improves insulin sensitivity”. For the same molecule, the “body weight gain and visceral fat accumulation” value (compared with placebo) was “significantly attenuated body weight gain and visceral fat accumulation”. For the same molecule, in [8], the lean body mass result was “able to increase lean body mass”.
